Data reported in patent US8530650B2, “2, 5-diamino-substituted pyrido [4, 3-D] pyrimidines as autotaxin inhibitors against cancer” (MERCK PATENT GmbH, priority 2008, dated 2013).
pIC50: −log10 of the molar value.

Target: T1, recombinant autotaxin (Homo sapiens, UniProt Q13822)
T1 construct: made in house; host or cells: Hi5 insect cells (baculovirus)
Assay: Autotaxin assay (Amplex Red, LPC substrate)
Assay type: biochemical
Conditions: 75 μM LPC, Amplex Red fluorescence, ten 1:3 dilutions starting at 30 μM
Description: Autotaxin activity is measured indirectly by means of Amplex Red Reagent. In this course, Amplex Red is measured as fluorogenic indicator for generated H2O2. Autotaxin converts substrate lysophosphatidylcholine (LPC) to phosphocholine and lysophosphatidylic acid (LPA). After the conversion phosphocholine is reacted with alkaline phosphatase to obtain inorganic phosphate and choline. During the next step choline is oxidized with choline oxidase to yield betaine, whereby H2O2 is generated. H2O2 reacts with Amplex Red Reagent in the presence of peroxidase (Horseradish peroxidase) in an 1:1 stochiometry and yields highly fluorescent resorufin. The generated fluorescence is measured in a reaction-dependent kinetic mode in order to enable subtraction of fluorescence signals of possible other fluorescent compounds that are not part of the reaction from total measured fluorescence.
1.5 μl of a standard solution or of the compounds of the invention are dissolved in 20 mM Hepes pH 7.2 with maximally 7.7% DMSO in individual concentrations. The resulting solution is pre-incubated together with 10 μl (16 ng) of highly purified recombinant autotaxin in a black 384-hole microtiter plate for 30 min at 22° C. Thereafter, the reaction is started through the addition of 5 μL-a-lysophosphatidylcholine (LPC), whereby the final concentration of LPC is 75 μM. The mixture is incubated for 90 min. at 37° C. After the incubation Amplex Red Reagent, peroxidase (Horseradish peroxidase) and choline oxidase are added. The fluorescence is immediately measured at a wavelength of 612 nm with an excitation wavelength of 485 nm in a “Tecan Ultra multimode” fluorescence reader. The activity of autotaxin is indirectly calculated via the amount of detected generated H2O2.
For IC50 analysis, ten serial 1:3 dilutions starting at 30 μM for each compound were run in duplicates.
IC50 values were calculated on normalized data. For normalization, control wells were added to each assay plate and the signal of uninhibited control wells was set to 100%, whereas the signal inhibited by 500 μM C14 LPA, (Avanti Polar Lipids, Cat# 857120P) was set to 0%. Curves were fitted and IC50 values calculated by the following model using proprietary analysis software: Y=Bottom+(100−Bottom)/(1+10^((LogIC50−X)*HillSlope))
Where X is the logarithm of concentration. Y is the response; Y starts at Bottom and goes to Top with a sigmoid shape.
Protein: Recombinant autotaxin (baculoviral Hi5 expression)
Substrate: L-a-lysophosphatidyl choline (chicken egg); Avanti Polar Lipids #830071 P
Standard: C14 LPA, Avanti Polar Lipids, Cat# 857120P
Detection Reagent Amplex Red Reagent; Invitrogen #A12222; dissolved in 1.923 ml of DMSO peroxidase Type VI-A (horseradish), Sigma #P6782; dissolved in 7.45 ml of test buffer, Choline Oxidase; Sigma #C5896; dissolved in 2.47 ml test buffer
Detection Reagent Mix: 1:100 dilution of Amplex Red Regent in test buffer
Test buffer: 200 mM Tris-HCl, Merck, Cat # 1.08219, pH 7.9; 0.1% BSA, lipid free, Roche Cat#775835

pIC50	Compound
> 4.52	Clc1ccccc1CNc1ncc2c(NCCCN3CCCCC3)nccc2n1 [Compound 16, N2-(2-Chloro-benzyl)-N5-(3-piperidin-1-yl-propyl)-pyrido[4,3-d]pyrimidine-2,5-diamine]
> 4.52	CN(C)C(=O)C1CCN(c2nccc3nc(NCc4ccccc4Cl)ncc23)CC1 [Compound 140, 1-[2-(2-Chloro-benzylamino)-pyrido[4,3-d]pyrimidin-5-yl]-piperidine-4-carboxylic acid dimethylamide]
> 4.52	O=C(NCCO)C1CCN(c2nccc3nc(NCc4ccccc4Cl)ncc23)CC1 [Compound 105, 1-[2-(2-Chloro-benzylamino)-pyrido[4,3-d]pyrimidin-5-yl]-piperidine-4-carboxylic acid (2-hydroxy-ethyl)-amide]
> 4.52	Clc1ccccc1CNc1ncc2c(NCCc3ccccn3)nccc2n1 [Compound 146, N2-(2-Chloro-benzyl)-N5-(2-pyridin-2-yl-ethyl)-pyrido[4,3-d]pyrimidine-2,5-diamine]
> 5.30	Fc1ccc(N2CCN(c3nccc4nc(NCc5ccccc5Cl)ncc34)CC2)cc1 [Compound 106, (2-Chloro-benzyl)-{5-[4-(4-fluoro-phenyl)-piperazin-1-yl]-pyrido[4,3-d]pyrimidin-2-yl}-amine]
> 4.52	COc1ccc(Nc2nccc3nc(NCc4ccccc4Cl)ncc23)cc1 [Compound 9, N2-(2-Chloro-benzyl)-N5-(4-methoxy-phenyl)-pyrido[4,3-d]pyrimidine-2,5-diamine]
> 4.52	O=C(OCc1cccnc1)N1CCN(c2nccc3nc(NCc4ccccc4Cl)ncc23)CC1 [Compound 151, 4-[2-(2-Chloro-benzylamino)-pyrido[4,3-d]pyrimidin-5-yl]-piperazine-1-carboxylic acid pyridin-3-ylmethyl ester]
> 5.00	Fc1ccccc1Nc1nccc2nc(NCc3ccccc3Cl)ncc12 [Compound 100, N2-(2-Chloro-benzyl)-N5-(2-fluoro-phenyl)-pyrido[4,3-d]pyrimidine-2,5-diamine]
> 4.52	COc1ccccc1CNc1ncc2c(Nc3ccc4c(c3)OCCO4)nccc2n1 [Compound 39, N5-(2,3-Dihydro-benzo[1,4]dioxin-6-yl)-N2-(2-methoxy-benzyl)-pyrido[4,3-d]pyrimidine-2,5-diamine]
> 5.30	O=C(NCc1cccnc1)C1CCCN(c2nccc3nc(NCc4ccccc4Cl)ncc23)C1 (stereo not shown) [Compound 81, 1-[2-(2-Chloro-benzylamino)-pyrido[4,3-d]pyrimidin-5-yl]-piperidine-3-carboxylic acid (pyridin-3-ylmethyl)-amide]
> 4.52	CCOc1ccccc1Nc1nccc2nc(NCc3ccccc3OC)ncc12 [Compound 32, N5-(2-Ethoxy-phenyl)-N2-(2-methoxy-benzyl)-pyrido[4,3-d]pyrimidine-2,5-diamine]
> 5.00	COc1ccc(CNc2ncc3c(Nc4ccc(F)cc4C)nccc3n2)cc1 [Compound 59, N5-(4-Fluoro-2-methyl-phenyl)-N2-(4-methoxy-benzyl)-pyrido[4,3-d]pyrimidine-2,5-diamine]
> 4.52	CC(=O)N1CCN(c2nccc3nc(NCc4ccccc4Cl)ncc23)CC1 [Compound 115, 1-{4-[2-(2-Chloro-benzylamino)-pyrido[4,3-d]pyrimidin-5-yl]-piperazin-1-yl}-ethanone]
> 5.30	COCCNC(=O)C1CCN(c2nccc3nc(NCc4ccccc4Cl)ncc23)CC1 [Compound 70, 1-[2-(2-Chloro-benzylamino)-pyrido[4,3-d]pyrimidin-5-yl]-piperidine-4-carboxylic acid (2-methoxy-ethyl)-amide]
> 5.00	CCN(CC)CCCNC(=O)C1CCN(c2nccc3nc(NCc4ccccc4Cl)ncc23)CC1 [Compound 63, 1-[2-(2-Chloro-benzylamino)-pyrido[4,3-d]pyrimidin-5-yl]-piperidine-4-carboxylic acid (3-diethylamino-propyl)-amide]
> 4.52	COc1ccccc1CNc1ncc2c(Nc3ccc(F)cc3)nccc2n1 [Compound 33, N5-(4-Fluoro-phenyl)-N2-(2-methoxy-benzyl)-pyrido[4,3-d]pyrimidine-2,5-diamine]

pIC50	Compound
> 5.30	CCN1CCN(C(=O)C2CCN(c3nccc4nc(NCc5ccccc5Cl)ncc34)CC2)CC1 [Compound 72, {1-[2-(2-Chloro-benzylamino)-pyrido[4,3-d]pyrimidin-5-yl]-piperidin-4-yl}-(4-ethyl-piperazin-1-yl)-methanone]
> 4.52	COc1ccc(Nc2nccc3nc(NCc4ccc(Cl)cc4)ncc23)cc1 [Compound 44, N2-(4-Chloro-benzyl)-N5-(4-methoxy-phenyl)-pyrido[4,3-d]pyrimidine-2,5-diamine]
> 4.52	c1ccc(CNc2ncc3c(N4CCCC4)nccc3n2)cc1 [Compound 1, Benzyl-(5-pyrrolidin-1-yl-pyrido[4,3-d]pyrimidin-2-yl)-amine]
> 4.52	COc1ccc(CNc2ncc3c(Nc4ccc(OC)cc4OC)nccc3n2)cc1 [Compound 56, N5-(2,4-Dimethoxy-phenyl)-N2-(4-methoxy-benzyl)-pyrido[4,3-d]pyrimidine-2,5-diamine]
> 5.30	O=C(CCc1c[nH]cn1)N1CCN(c2nccc3nc(NCc4ccccc4Cl)ncc23)CC1 [Compound 122, 1-{4-[2-(2-Chloro-benzylamino)-pyrido[4,3-d]pyrimidin-5-yl]-piperazin-1-yl}-3-(1H-imidazol-4-yl)-propan-1-one]
> 5.00	CCOC(=O)CCNC(=O)C1CCCN(c2nccc3nc(NCc4ccccc4Cl)ncc23)C1 (stereo not shown) [Compound 92, 3-({1-[2-(2-Chloro-benzylamino)-pyrido[4,3-d]pyrimidin-5-yl]-piperidine-3-carbonyl}-amino)-propionic acid ethyl ester]
> 5.30	CCN(CC)CCNC(=O)C1CCN(c2nccc3nc(NCc4ccccc4Cl)ncc23)CC1 [Compound 96, 1-[2-(2-Chloro-benzylamino)-pyrido[4,3-d]pyrimidin-5-yl]-piperidine-4-carboxylic acid (2-diethylamino-ethyl)-amide]
> 5.30	O=C(Cc1cccnc1)N1CCN(c2nccc3nc(NCc4ccccc4Cl)ncc23)CC1 [Compound 121, 1-{4-[2-(2-Chloro-benzylamino)-pyrido[4,3-d]pyrimidin-5-yl]-piperazin-1-yl}-2-pyridin-3-yl-ethanone]
> 5.30	O=C(NC1CC1)C1CCCN(c2nccc3nc(NCc4ccccc4Cl)ncc23)C1 (stereo not shown) [Compound 86, 1-[2-(2-Chloro-benzylamino)-pyrido[4,3-d]pyrimidin-5-yl]-piperidine-3-carboxylic acid cyclopropylamide]
> 4.52	COc1ccccc1CNc1ncc2c(N3CCC(C(=O)NCc4ccco4)CC3)nccc2n1 [Compound 74, 1-[2-(2-Methoxy-benzylamino)-pyrido[4,3-d]pyrimidin-5-yl]-piperidine-4-carboxylic acid (furan-2-ylmethyl)-amide]
> 5.30	CCOC(=O)N1CCN(c2nccc3nc(NCc4ccccc4Cl)ncc23)CC1 [Compound 114, 4-[2-(2-Chloro-benzylamino)-pyrido[4,3-d]pyrimidin-5-yl]-piperazine-1-carboxylic acid ethyl ester]
> 4.52	COc1ccc(Nc2nccc3nc(NCc4ccccc4Cl)ncc23)c(OC)c1 [Compound 14, N2-(2-Chloro-benzyl)-N5-(2,4-dimethoxy-phenyl)-pyrido[4,3-d]pyrimidine-2,5-diamine]
> 4.52	COc1ccc(CNc2ncc3c(Nc4ccc5c(c4)OCCO5)nccc3n2)cc1 [Compound 55, N5-(2,3-Dihydro-benzo[1,4]dioxin-6-yl)-N2-(4-methoxy-benzyl)-pyrido[4,3-d]pyrimidine-2,5-diamine]
> 5.30	CC(C)NC(=O)C1CCN(c2nccc3nc(NCc4ccccc4Cl)ncc23)CC1 [Compound 67, 1-[2-(2-Chloro-benzylamino)-pyrido[4,3-d]pyrimidin-5-yl]-piperidine-4-carboxylic acid isopropylamide]
> 4.52	COc1ccc(CNc2ncc3c(Nc4ccc5c(c4)OCO5)nccc3n2)cc1 [Compound 53, N5-Benzo[1,3]dioxol-5-yl-N2-(4-methoxy-benzyl)-pyrido[4,3-d]pyrimidine-2,5-diamine]
